The source of these data is article doi:10.1101/2023.12.19.572336, “Structure of an insect gustatory receptor” (bioRxiv, 2023).

The target of the test is T1, Bombyx mori Gr9 (BmGr9) (Bombyx mori, UniProt B3GTD7).
T1 construct: N-terminally TwinStrep-tagged BmGr9, homotetramer; residues 232–269 and the N and C termini (15 and 5 residues) disordered
T1 sequence (B3GTD7 1-449): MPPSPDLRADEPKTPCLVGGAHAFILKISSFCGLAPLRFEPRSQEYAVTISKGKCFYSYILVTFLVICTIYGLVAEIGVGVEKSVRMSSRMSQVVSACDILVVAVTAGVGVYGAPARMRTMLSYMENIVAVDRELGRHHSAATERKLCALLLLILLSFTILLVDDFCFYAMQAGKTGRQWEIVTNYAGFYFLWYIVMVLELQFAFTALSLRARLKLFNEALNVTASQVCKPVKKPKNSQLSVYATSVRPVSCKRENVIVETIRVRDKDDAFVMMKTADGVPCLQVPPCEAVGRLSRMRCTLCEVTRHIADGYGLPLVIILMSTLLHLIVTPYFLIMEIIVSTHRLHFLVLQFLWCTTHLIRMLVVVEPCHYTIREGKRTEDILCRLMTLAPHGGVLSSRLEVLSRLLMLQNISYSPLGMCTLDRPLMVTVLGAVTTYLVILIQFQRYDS
Description: cryo-EM of protein purified with […] D-fructose ([…] Å); EC50 by two-electrode voltage clamp in Xenopus oocytes. It counts as cell-based. On the technique in general: In two-electrode clamp one electrode senses voltage and the other passes current.

In general, EC50 refers to the concentration needed to bring the measured effect to its halfway point. `OCC1(O)OC[C@@H](O)[C@@H](O)[C@@H]1O` (stereo partly drawn) [D-fructose] yielded an EC50 of 22 mM.
